Results on 23 compounds are retold here after patent US20180002319A1, “MACROCYCLIC PICOLINAMIDE COMPOUNDS WITH FUNGICIDAL ACTIVITY” (DOW AGROSCIENCES LLC, priority 2014, published 2018).

One test deals with Zymoseptoria tritici. As to the kind of experiment: Leaf Blotch of Wheat (SEPTTR) fungicidal activity. In kind it is in vivo. The following applies: wheat leaf blotch; for pest or weed control at 100 ppm: High Volume application; for pest or weed control at 121.5 g/ha: Low Volume application, 121.5 g/H. How it is done:
Example A: Evaluation of Fungicidal Activity: Leaf Blotch of Wheat (Zymoseptoria tritici; Bayer Code […]) Technical grades of materials were dissolved in acetone, which were then mixed with nine volumes of H2O containing 110 ppm Triton X-100. The fungicide solutions were applied onto wheat seedlings using an automated booth sprayer to run-off. All sprayed plants were allowed to air dry prior to further handling. All fungicides were evaluated using the aforementioned method for their activity vs. all target diseases, unless stated otherwise. Wheat leaf blotch and brown rust activity were also evaluated using track spray applications, in which case the fungicides were formulated as EC formulations, containing 0.1% Trycol 5941 in the spray solutions. Wheat plants (variety Yuma) were grown from seed in a greenhouse in 50% mineral soil/50% soil-less Metro mix until the first leaf was fully emerged, with 7-10 seedlings per pot. These plants were inoculated with an aqueous spore suspension of Zymoseptoria tritici either prior to or after fungicide treatments. After inoculation the plants were kept in 100% relative humidity (one day in a dark dew chamber followed by two to three days in a lighted dew chamber at 20° C.) to permit spores to germinate and infect the leaf. The plants were then transferred to a greenhouse set at 20° C. for disease to develop. When disease symptoms were fully expressed on the 1st leaves of untreated plants, infection levels were assessed on a scale of 0 to 100 percent disease severity. Percent disease control was calculated using the ratio of disease severity on treated plants relative to untreated plants.

The subject of a further test is Puccinia triticina. As to the kind of experiment: Wheat Brown Rust (PUCCRT) fungicidal activity. In kind it is in vivo. Particulars: for pest or weed control at 100 ppm: High Volume application; for pest or weed control at 121.5 g/ha: Low Volume application, 121.5 g/H. How it is done:
Technical grades of materials were dissolved in acetone, which were then mixed with nine volumes of H2O containing 110 ppm Triton X-100. The fungicide solutions were applied onto wheat seedlings using an automated booth sprayer to run-off. All sprayed plants were allowed to air dry prior to further handling. All fungicides were evaluated using the aforementioned method for their activity vs. all target diseases, unless stated otherwise. Wheat leaf blotch and brown rust activity were also evaluated using track spray applications, in which case the fungicides were formulated as EC formulations, containing 0.1% Trycol 5941 in the spray solutions. Wheat plants (variety Yuma) were grown from seed in a greenhouse in 50% mineral soil/50% soil-less Metro mix until the first leaf was fully emerged, with 7-10 seedlings per pot. These plants were inoculated with an aqueous spore suspension of Zymoseptoria tritici either prior to or after fungicide treatments. After inoculation the plants were kept in 100% relative humidity (one day in a dark dew chamber followed by two to three days in a lighted dew chamber at 20° C.) to permit spores to germinate and infect the leaf. The plants were then transferred to a greenhouse set at 20° C. for disease to develop. When disease symptoms were fully expressed on the 1st leaves of untreated plants, infection levels were assessed on a scale of 0 to 100 percent disease severity. Percent disease control was calculated using the ratio of disease severity on treated plants relative to untreated plants. Example B: Evaluation of Fungicidal Activity: Wheat Brown Rust (Puccinia triticina; Bayer Code PUCCRT) Wheat plants (variety Yuma) were grown from seed in a greenhouse in 50% mineral soil/50% soil-less Metro mix until the first leaf was fully emerged, with 7-10 seedlings per pot. These plants were inoculated with an aqueous spore suspension of Puccinia triticina either prior to or after fungicide treatments. After inoculation the plants were kept in a dark dew room at 22° C. with 100% relative humidity overnight to permit spores to germinate and infect the leaf. The plants were then transferred to a greenhouse set at 24° C. for disease to develop. Fungicide formulation, application and disease assessment followed the procedures as described in the Example A.

[1] abbreviates: 24 h, 1 day protectant, read-out: SEPTTR disease control, 1DP (1 Day Protectant).
The mark [2] stands for this setting: 72 h, 3 day curative, read-out: SEPTTR disease control, 3DC (3 Day Curative).
Where [3] appears, read: 24 h, 1 day protectant, read-out: PUCCRT disease control, 1DP (1 Day Protectant).
Setting [4] is: 72 h, 3 day curative, read-out: PUCCRT disease control, 3DC (3 Day Curative).

Read-outs that look alike come from different tables or passages of the source.

As for `COc1ccnc(C(=O)N[C@H]2CCCC[C@H](OCC(C)C)[C@@H](Oc3ccccc3)[C@H](C)OC2=O)c1O` [Compound 93], the pest or weed control at 100 ppm in the test with Zymoseptoria tritici (setting [1]) is greater than 80%; with Zymoseptoria tritici (setting [2]), less than 80%; in the test with Puccinia triticina (setting [3]), greater than 80%; with Puccinia triticina (setting [4]) it was greater than 80%.

Consider `COc1ccnc(C(=O)N[C@H]2CCCC[C@H](Oc3ccccc3)[C@@H](OC3CCCC3)[C@H](C)OC2=O)c1O` [Compound 109], for which the pest or weed control at 100 ppm in the test with Zymoseptoria tritici (setting [1]) was greater than 80%; in the test on Zymoseptoria tritici (setting [2]), less than 80%; in the test on Puccinia triticina (setting [3]), greater than 80%; in the test with Puccinia triticina (setting [4]), less than 80%.

On to `CC[C@H]1CCOC[C@H](NC(=O)c2nccc(OC)c2OC(C)=O)C(=O)O[C@@H](C)[C@@H]1OC(=O)c1ccccc1` [Compound 80], for which the pest or weed control at 121.5 g/ha was greater than 80% in the test on Zymoseptoria tritici (setting [1]), less than 80% in the test with Zymoseptoria tritici (setting [2]), greater than 80% in the test with Puccinia triticina (setting [3]) and greater than 80% in the test on Puccinia triticina (setting [4]).

As for `COc1ccc(C[C@H]2CCOC[C@H](NC(=O)c3nccc(OC)c3O)C(=O)O[C@@H](C)[C@@H]2Oc2ccccc2)cc1` [Compound 129], the pest or weed control at 100 ppm with Zymoseptoria tritici (setting [1]), with Puccinia triticina (setting [3]) and in the test on Puccinia triticina (setting [4]) was greater than 80% in each case.

With `COc1ccc(CO[C@H]2[C@H](C)OC(=O)[C@@H](NC(=O)c3nccc(OC)c3O)CCOC[C@@H]2OCc2ccc(OC)cc2)cc1` [Compound 106], the pest or weed control at 100 ppm with Zymoseptoria tritici (setting [1]) is greater than 80%; with Zymoseptoria tritici (setting [2]), less than 80%; in the test on Puccinia triticina (setting [3]) it was greater than 80%.

For `CCCO[C@H]1[C@H](C)OC(=O)[C@@H](NC(=O)c2nccc(OC)c2O)CCCC[C@@H]1Oc1ccccc1` [Compound 97], the pest or weed control at 100 ppm was greater than 80% with Zymoseptoria tritici (setting [1]), less than 80% in the test with Zymoseptoria tritici (setting [2]), greater than 80% in the test on Puccinia triticina (setting [3]) and greater than 80% with Puccinia triticina (setting [4]).

For `COc1ccnc(C(=O)N[C@H]2CCCC[C@H](CC3CCCC3)[C@@H](Oc3ccccc3)[C@H](C)OC2=O)c1OC(C)=O` [Compound 52], the results for the pest or weed control at 121.5 g/ha with Zymoseptoria tritici (setting [1]), with Puccinia triticina (setting [3]) and in the test with Puccinia triticina (setting [4]) were greater than 80%, greater than 80% and less than 80%, respectively.

As for `COc1ccnc(C(=O)N[C@H]2CCOC[C@H](OC)[C@@H](Oc3ccccc3)[C@H](C)OC2=O)c1O` [Compound 113], the pest or weed control at 100 ppm with Zymoseptoria tritici (setting [1]), in the test on Zymoseptoria tritici (setting [2]), in the test on Puccinia triticina (setting [3]) and in the test with Puccinia triticina (setting [4]) was greater than 80% throughout.

Turning to `CCCCO[C@H]1CCOC[C@H](NC(=O)c2nccc(OC)c2O)C(=O)O[C@@H](C)[C@@H]1OC(=O)C(C)C` [Compound 83], the pest or weed control at 100 ppm with Zymoseptoria tritici (setting [1]) was less than 80%; with Zymoseptoria tritici (setting [2]) it was greater than 80%; with Puccinia triticina (setting [3]), greater than 80%; in the test with Puccinia triticina (setting [4]), greater than 80%.

Turning to `CCCCCO[C@H]1[C@H](C)OC(=O)[C@@H](NC(=O)c2nccc(OC)c2O)CCCC[C@@H]1OC(=O)c1ccccc1` [Compound 94], the pest or weed control at 100 ppm was greater than 80% with Zymoseptoria tritici (setting [1]), less than 80% in the test with Zymoseptoria tritici (setting [2]), greater than 80% with Puccinia triticina (setting [3]) and less than 80% with Puccinia triticina (setting [4]).

`COc1ccnc(C(=O)N[C@H]2COCC[C@H](OCc3ccccc3)[C@@H](OCc3ccccc3)[C@H](C)OC2=O)c1OCOC(C)=O` [Compound 1]: the pest or weed control at 100 ppm in the test on Zymoseptoria tritici (setting [1]), in the test with Puccinia triticina (setting [3]) and in the test with Puccinia triticina (setting [4]) was greater than 80% each time. Also, the pest or weed control at 121.5 g/ha in the test with Zymoseptoria tritici (setting [1]) was greater than 80%; with Zymoseptoria tritici (setting [2]), less than 80%; with Puccinia triticina (setting [3]), greater than 80%.

On to `CCCO[C@H]1[C@H](C)OC(=O)[C@@H](NC(=O)c2nccc(OC)c2OCOC(C)=O)CCOC[C@@H]1Oc1ccccc1` [Compound 42], for which the pest or weed control at 121.5 g/ha is less than 80% with Zymoseptoria tritici (setting [1]), less than 80% in the test with Zymoseptoria tritici (setting [2]), greater than 80% with Puccinia triticina (setting [3]) and less than 80% in the test with Puccinia triticina (setting [4]).

As for `CCCCO[C@H]1CCOC[C@H](NC(=O)c2nccc(OC)c2OCOC(C)=O)C(=O)O[C@@H](C)[C@@H]1OCC(C)C` [Compound 7], the pest or weed control at 100 ppm in the test on Zymoseptoria tritici (setting [1]) was greater than 80%; in the test with Zymoseptoria tritici (setting [2]), less than 80%; in the test with Puccinia triticina (setting [3]), greater than 80%; in the test on Puccinia triticina (setting [4]), greater than 80%.

For `COc1ccnc(C(=O)N[C@H]2CCCC[C@H](OCC(C)C)[C@@H](OCC(C)C)[C@H](C)OC2=O)c1O` [Compound 89], the pest or weed control at 100 ppm in the test with Zymoseptoria tritici (setting [1]), in the test on Zymoseptoria tritici (setting [2]) and with Puccinia triticina (setting [3]) was less than 80% throughout.

For `COc1ccc(C[C@H]2CCOC[C@H](NC(=O)c3nccc(OC)c3OC(C)=O)C(=O)O[C@@H](C)[C@@H]2Oc2ccccc2)cc1` [Compound 65], the pest or weed control at 121.5 g/ha in the test on Zymoseptoria tritici (setting [1]) is greater than 80%; in the test with Zymoseptoria tritici (setting [2]), less than 80%; with Puccinia triticina (setting [3]) it was greater than 80%; in the test on Puccinia triticina (setting [4]), less than 80%.

As to `COc1ccnc(C(=O)N[C@H]2CCCC[C@H](Cc3ccccc3)[C@@H](OCC(C)C)[C@H](C)OC2=O)c1O` [Compound 102], the pest or weed control at 100 ppm in the test on Zymoseptoria tritici (setting [1]) is greater than 80%; in the test on Puccinia triticina (setting [3]) it was greater than 80%; in the test with Puccinia triticina (setting [4]), less than 80%.

For `CCC[C@H]1CCCC[C@H](NC(=O)c2nccc(OC)c2OCOC(C)=O)C(=O)O[C@@H](C)[C@@H]1OC(=O)C(C)C` [Compound 31], the pest or weed control at 121.5 g/ha in the test on Zymoseptoria tritici (setting [1]) is less than 80%; in the test with Zymoseptoria tritici (setting [2]), less than 80%; with Puccinia triticina (setting [3]), greater than 80%; with Puccinia triticina (setting [4]), less than 80%.

Turning to `CCCO[C@@H]1[C@@H](CC2CCCC2)CCCC[C@H](NC(=O)c2nccc(OC)c2OC(C)=O)C(=O)O[C@H]1C` [Compound 58], the pest or weed control at 121.5 g/ha was less than 80% in the test on Zymoseptoria tritici (setting [1]), less than 80% in the test with Zymoseptoria tritici (setting [2]), greater than 80% in the test on Puccinia triticina (setting [3]) and less than 80% in the test on Puccinia triticina (setting [4]).

For `CCOCC(=O)OCOc1c(OC)ccnc1C(=O)N[C@H]1CCCC[C@H](CC2CCCC2)[C@@H](OC(=O)C(C)C)[C@H](C)OC1=O` [Compound 55], the pest or weed control at 121.5 g/ha in the test with Zymoseptoria tritici (setting [1]) was less than 80%; with Zymoseptoria tritici (setting [2]), less than 80%; in the test on Puccinia triticina (setting [3]), greater than 80%; with Puccinia triticina (setting [4]), less than 80%.

For `CCC[C@H]1CCCC[C@H](NC(=O)c2nccc(OC)c2O)C(=O)O[C@@H](C)[C@@H]1OC(=O)C(C)C` [Compound 103], the pest or weed control at 100 ppm is less than 80% in the test on Zymoseptoria tritici (setting [1]), greater than 80% with Puccinia triticina (setting [3]) and less than 80% with Puccinia triticina (setting [4]).

On to `COc1ccnc(C(=O)N[C@H]2CCOC[C@H](OCC(C)C)[C@@H](OCC(C)C)[C@H](C)OC2=O)c1OCOC(C)=O` [Compound 43], for which the figures for the pest or weed control at 121.5 g/ha in the test with Puccinia triticina (setting [3]) and with Puccinia triticina (setting [4]) were greater than 80% and less than 80%, respectively.

As for `COc1ccnc(C(=O)N[C@H]2CCCC[C@H](OC)[C@@H](OC)[C@H](C)OC2=O)c1O` [Compound 99], the pest or weed control at 100 ppm in the test with Puccinia triticina (setting [3]) is greater than 80%.

Regarding `COc1ccnc(C(=O)N[C@H]2CCCC[C@H](OC3CCCC3)[C@@H](OC)[C@H](C)OC2=O)c1OCOC(C)=O` [Compound 35], the pest or weed control at 121.5 g/ha with Puccinia triticina (setting [3]) is greater than 80%; with Puccinia triticina (setting [4]) it was less than 80%.
